Read-outs that look alike come from different tables or passages of the source.
Experiments:
[1] = Adsorption of edaravone to catheter in vitro (recovery after wash-in); format: physicochemical; conditions: regardless of the material of the catheter
Protocol: In administration using a catheter, catheters of various materials are used in medical facilities. Thus, whether administration is feasible with a catheter of any material was investigated by evaluating adsorption properties of catheters. That is, the edaravone oral formulation (#3) was passed through a catheter, and then the percentage of edaravone collected by washing in with water was evaluated.
Specifically, the edaravone oral formulation was loaded into a syringe for catheter administration to give an edaravone amount of 105 mg, and the edaravone oral formulation was passed from the syringe to each of the catheters. Water at a predetermined temperature was then injected into the catheter to wash in the edaravone oral formulation. The edaravone oral formulation that passed through the catheter and the wash-in liquid were collected and mixed, and an amount of edaravone contained in the mixed liquid was measured. The edaravone oral formulation was washed in under any of the following conditions: with 10 ml of water three times, with 30 ml of water at 25° C. or 40° C. once, or with 50 mL of water at 25° C. or 40° C. once. Three measurements were made for each catheter, and the mean and SD of recovery % were calculated.

[2] = Clinical Trial #12: PK after oral administration of edaravone solution and suspension; conditions: male, human, in vivo, fasting (N = 6), mean; for AUC(0-t): read-out: AUC0-24 h
Protocol: Whether or not there is an influence on pharmacokinetics by administering in forms of a solution and a suspension when administering edaravone orally was evaluated. Specifically, Clinical Trial #12 described below was conducted on healthy adult Japanese male subjects. Administration during the trial period was a single oral administration.
Either an edaravone solution containing 60 mg of edaravone or an edaravone suspension containing 120 mg of edaravone was orally administered to subjects in a fasting state of 10 hours or longer since the last meal intake. The 60 mg or 120 mg of edaravone was dissolved or suspended in 50 mL or 10 mL of 0.1% polyvinyl alcohol solution, respectively. The edaravone solution or suspension of the respective content was administered to each of six subjects.

[3] = Clinical study #6: PK of edaravone oral formulation (formula #3) via PEG tube in ALS patients; format: in vivo, human; conditions: for Cmax: 105 mg
Protocol: Pharmacokinetics of edaravone in administration of the edaravone oral formulation via a PEG tube was evaluated. Specifically, a clinical study #6 described below was conducted in ALS patients with a percutaneous endoscopic gastrostomy tube (PEG tube) (the patient group).
The edaravone oral formulation was administered via a PEG tube to the patient group in fasted conditions after a lapse of 10 hours or longer from consumption of a meal. That is, first, 100 mL of lukewarm water was injected through a PEG tube 1 hour before the administration of the edaravone oral formulation, and 10 mL of lukewarm water was injected through a PEG tube immediately before the administration. Then, the edaravone oral formulation was administered to the PEG tube, and further 10 mL of water was injected through the PEG tube three times to wash in the edaravone oral formulation. In the patient group, ALS patients who had been already administered with an edaravone intravenous infusion formulation were administered with the edaravone oral formulation via a PEG tube after a lapse of 48 hours or longer from the time of completion of the previous administration of the intravenous infusion formulation. Blood samples were each collected before the administration, and 15 minutes, 30 minutes, 1 hour, 2 hours, 4 hours, 8 hours, and 24 hours after the administration, and the concentrations of unchanged edaravone in plasma were measured. […] For the reference example, the results of the reference group in Example 4, in which the edaravone oral formulation of the same formula #3 was administered orally and blood samples were collected, were utilized.
The resulting PK parameters were corrected for body weight of each subject in the patient group adjusted to 70 kg by a proportional calculation. In addition, the results of the PK parameters after correction of the patient group are shown in individual plots as #6 in FIG. 3. A comparison was made between the patient group administered via a PEG tube in Table 10 below and the reference group administered orally in Table 9 above. […] Thus, the difference in the Cmax and the difference in the AUC before weight correction between the patient group administered via a PEG tube and the reference group administered orally seen in Table 10 below are considered due to the difference in body weight between the patient group administered via a PEG tube and the reference group administered orally, and the difference in the Cmax and the difference in the AUC after weight correction between the patient group administered via a PEG tube and the reference group administered orally seen in FIG. 3 are each considered to be within the range of error.

[4] = Clinical study #1: PK of edaravone oral formulation (formula #1), fasted vs 30 min after high-fat meal; format: in vivo; conditions: male, human, plasma, 200 mg, 200 mg oral
Protocol: Effects of meal consumption before administration of the edaravone oral formulation on the pharmacokinetics of edaravone were evaluated. Specifically, clinical studies #1, #2, and #3 described below were conducted on separate days in Japanese healthy adult male subjects. In each of clinical studies #1, #2, and #3, one dose each of edaravone oral formulations (edaravone suspensions) of formulas #1, #2, and #3 shown in Table 1 below were used respectively and administered orally once during the study period. For each clinical study, a reference study was conducted (reference example), in which the edaravone oral formulation was administered in fasted conditions as described below, and in each clinical study and the corresponding reference study, the edaravone oral formulation was each administered to the same subjects.
For the high-fat meal, a meal with total calories per meal of 800 to 1000 kilocalories and calorie intake from lipid of 50% was used. For the standard meal, a meal with total calories per meal of 400 to 500 kilocalories and calorie intake from lipid of 25% was used. For the light meal, a liquid-type nutritional supplement with total calories per meal of 250 kilocalories (enteral nutritional supplement: Ensure Liquid (trade name)) was used.
The edaravone oral formulation (formula #1) was administered orally to the subjects 30 minutes after high-fat meal consumption. Blood samples were each collected before the administration, and 15 minutes, 30 minutes, 1 hour, 1.5 hours, 2 hours, 4 hours, 6 hours, 8 hours, 12 hours, 24 hours, 36 hours, and 48 hours after the administration, and the concentrations of unchanged edaravone in plasma were measured. On the other hand, as a reference example, the edaravone oral formulation was administered orally to the same subjects in fasted conditions, blood samples were collected, and the concentrations of unchanged edaravone in plasma were measured in the same manner. For the administration in fasted conditions, the edaravone oral formulation was administered orally after a lapse of 10 hours or more from the previous meal consumption (the same applies hereinafter). None of the subjects consumed a next meal until the blood sample collection 4 hours after the administration was completed.

[5] = after weight correction (70 kg)
[6] = human, plasma, 105 mg via PEG tube, fasted, ALS patients, mean, before weight correction
[7] = formula #1, 30 min after high-fat meal, mean (n = 5)
[8] = formula #1, fasted, mean (n = 6)

adsorption of edaravone on the catheters [1]: No adsorption
Cmax ([2]; Cohort S1, 60 mg, Solution): 755 ng/mL
AUC(0-t) ([2]; Cohort S1, 60 mg, Solution): 816 ng·h/mL
Cmax ([2]; Cohort S2, 120 mg, Suspension): 1740 ng/mL
AUC(0-t) ([2]; Cohort S2, 120 mg, Suspension): 2240 ng·h/mL
difference in the AUC between the patient group administered via a PEG tube and the reference group administered orally [3, 5]: 9.5%
difference in the Cmax between the patient group administered via a PEG tube and the reference group administered orally [3, 5]: 8.3%
difference in the AUC between the patient group administered via a PEG tube and the reference group administered orally ([3]; before weight correction): 33%
difference in the Cmax between the patient group administered via a PEG tube and the reference group administered orally ([3]; before weight correction): 30%
Cmax ([3]; human, plasma, 105 mg via PEG tube, ALS patients, corrected to 70 kg, read-out: Cmax after weight correction, mean value±standard error): 1580 ± 251 ng/mL
Cmax ([3]; human, plasma, 105 mg via PEG tube, fasted, ALS patients, mean, before weight correction, read-out: Cmax): 2160 ng/mL
AUC ([3]; human, plasma, 105 mg via PEG tube, ALS patients, corrected to 70 kg, read-out: AUC after weight correction, mean value±standard error): 1700 ± 228 ng·h/mL
AUC(0-inf) [3, 6]: 2340 ng·h/mL
Tmax [3, 6]: 0.33 h
AUC(0-inf) [4, 7]: 2470 ng·h/mL
Cmax [4, 7]: 899 ng/mL
Tmax [4, 7]: 1.35 h
half-life [4, 7]: 5.23 h
AUC(0-inf) [4, 8]: 6310 ng·h/mL
Cmax [4, 8]: 4930 ng/mL
Tmax [4, 8]: 0.42 h
half-life [4, 8]: 9.05 h
Structure (SMILES): CC1=NN(c2ccccc2)C(=O)C1 [Edaravone, 3-methyl-1-phenyl-2-pyrazolin-5-one]

— patent publication US12310946B2, “Pharmaceutical composition for oral administration of edaravone and method of administering same” (MITSUBISHI TANABE PHARMA CORPORATION, priority 2020, dated 2025)
